Measured values from US20160223522A1, “ASSAY FOR DETERMINING RELATIVE REDOX CHANGES IN LIVING CELLS AND ASSOCIATED DEVICES, SYSTEMS, AND METHODS” (University of Utah Research Foundation, priority 2013, published 2016).
Where two headings read alike, the source gives them in different places. Ends that are not written are not given here.

Assays:
BJ fibroblasts [1] = assay: Secondary test: protection of cells from hydrogen peroxide oxidative stress, viability by Alamar Blue; type: cell-based, human; conditions: 4 μM hit for 24 hours; 980 μM hydrogen peroxide for four hours; viability 24 hours following treatment (FIG. 11c)
Protocol: (§1) For comparison with Alamar Blue™ (Invitrogen, Carlsbad, Calif.), cells in a 96-well plate were washed with PBS followed by four hours of incubation with Alamar Blue diluted 1:10 in normal media according to the manufacturer's instructions. Alamar Blue fluorescence was assayed in a plate reader using excitation and emission wavelengths 540 nm and 590 nm, respectively.
(§2) A secondary test was performed to evaluate the ability of each hit to protect cells from oxidative stress. Cells in 96-well plates were incubated with hits dissolved to 4 μM in cell media for 24 hours (three wells per compound). Cells were then washed once with PBS, and treated with hydrogen peroxide dissolved in cell media for four hours. Cells were then washed once with PBS, and cell viability was assayed with Alamar Blue.
(§3) Control cells were not treated with hydrogen peroxide. Every other category, including DMSO, was treated with 240 μM hydrogen peroxide for four hours prior to viability assessment with Alamar Blue. P-value for 10E4 vs. DMSO is 0.04, p-value for 10E4 vs. control is 0.98, and p-value for DMSO vs. control is 0.02. […] Control cells were not treated with hydrogen peroxide. DMSO pre-treated cells and every other category was treated with 980 μM hydrogen peroxide for four hours prior to the addition of Alamar Blue. […]

H9C2 cells = assay: as above; type: cell-based, rat; conditions: 4 μM hit for 24 hours; 24 hours after treatment with 600 μM hydrogen peroxide (FIG. 11b)
Protocol: as §1, §2, §3

BJ fibroblasts [2] = assay: Reductide plate reader assay in cells (FAM signal after treatment with redox-modifying agents); type: cell-based, human; conditions: for reductide FAM signal, % of control at 50 µM: Homo sapiens, Fibroblast, 50 μM compound for 24 hours, then reductide 1.5 μM for four hours, in comparison with vehicle treated cells, read-out: % change from control (reductide FAM signal)
Protocol: BJ fibroblasts were trypsinized and re-plated in a 96-well plate (5,000 cells/well) in normal growth medium and allowed to attach overnight. Media was replaced with normal media supplemented with the chemical redox-modifying agent indicated in the “Results” section for the indicated duration of treatment. Cells were subsequently washed one time with PBS and media was replaced with normal media supplemented with reductide 1 μM.
BJ fibroblasts in 96-well plates were pretreated with various redox-modifying agents followed by washing, incubation with reductide, and assessment of fluorescence by plate reader. […] However, following twenty-four hours of treatment with H2O2, FAM signal was increased for BJ fibroblasts treated with 200-400 μM H2O2 (FIG. 4D) but decreased with higher doses.
Although glutathione is the most abundant intracellular redox buffering system, the protein thioredoxin also acts as an important redox buffer. In order to test whether uptake and reduction of reductide is affected by glutathione status, thioredoxin status, or both, BJ fibroblasts were treated with the specific inhibitor of thioredoxin reductase, aurothioglucose, the inhibitor of glutathione biosynthesis, 1-buthionine sulfoximine (BSO), or both for 24 hours followed by washing, incubation with reductide for four hours, and plate reader assay. […] Thus, uptake and reduction of reductide depends on both glutathione and thioredoxin systems.
In another test to determine whether uptake and reduction of reductide is affected by glutathione status, BJ fibroblasts were treated with 1-buthionine sulfoximine (BSO), an inhibitor of glutathione biosynthesis, or diamide, a thiol oxidizing agent that decreases the cellular GSH to GSSG ratio. […] The following day, cells were treated with the glutathione biosynthesis inhibitor 1-buthionine sulfoximine (BSO) (FIG. 6a) or the thiol oxidizing agent diamide (FIG. 6b) in normal media also containing reductide 1 μM.
The following day, cells were incubated in normal cell media supplemented with 50 μM of a redox-modifying compound from the redox library distributed from Enzo Life Sciences. Each redox compound was used to treat three wells for 24 hours. Afterward, cells were washed with PBS followed by incubation in reductide 1 μM dissolved in normal media for four hours. FAM signal from reduction of reductide's disulfide bond was assayed in a plate reader. Most compounds in the library are classified as antioxidants. […] It should be noted that the screening conditions (50 μM concentration, 24 hour drug incubation) were not optimized for each drug individually. That many antioxidants can act as pro-oxidants if their concentration is sufficiently high is well known. […] When retested at new concentrations, different results were obtained (FIG. 10a-c), showing an increase in signal expected for reduction.
Cells were subsequently washed with PBS and incubated with reductide 1.5 μM dissolved in cell media for four hours. FAM signal was assayed in a plate reader. The redox modifying compounds were obtained as an 84 compound library from Enzo Life Sciences. Percentage change in reductide signal in comparison with vehicle treated cells are shown for a subset of the redox modifying compounds.

IMR90 fibroblasts [3] = tested on: IMR90 fibroblasts
Protocol: For comparison with monochlorobimane, IMR90 fibroblasts were seeded into a 96 well plate at a density of 50,000 cells per well and attached overnight. Cells were incubated for 60 minutes in media containing NAC or H2O2 at the indicated concentrations. Cells were washed twice in 200 μl of PBS. Monochlorobimane was used to assay reduced GSH content in half the wells using the Glutathione Assay Kit available from Sigma (CS 1020, St. Louis, Mo., USA), following the manufacturer's instructions for use in live cells in a plate reader. At the same time, reductide was dissolved in the same assay buffer used for monochlorobimane treatment and added to half of the wells at a concentration of 1 μM. Fluorimetric readings were performed in a Synergy HT plate reader using excitation and emission wavelengths of 485 nm/528 nm for reductide and 390 nm/478 nm for monochlorobimane. Each cell condition was triplicated, and each experiment was repeated two times.
Reductide (FIG. 8a) is compared with monochlorobimane (FIG. 8b), which is non-fluorescent unless conjugated to low molecular weight thiols, in IMR90 fibroblasts following pretreatment with NAC or H2O2. Cells were seeded into a 96-well plate at a density of 50,000 cells per well and allowed to attach overnight. […]

IMR90 fibroblasts [4] = assay: Flow cytometry of cells incubated with reductide (TAMRA, FAM, DAPI, side-scatter); type: cell-based, human
Protocol: IMR90 fibroblasts were seeded onto six 10 cm dishes at a density of 1.8×10^6 cells and allowed to attach overnight. Three dishes were treated with H2O2 600 μM and another three with NAC 4 mM, each in normal media, for one hour. Cells were washed with PBS followed by incubation with reductide 1 μM in normal media for 3, 15, or 30 minutes. Cells were then washed again with PBS followed by trypsinization and collection in normal media without phenol red. Cell concentration was 10^6 per ml. DAPI was added at 1:500 dilution and cells were analyzed by flow cytometry for TAMRA and FAM fluorescence.
IMR90 cells were seeded into 10 cm dishes at a density of 1.8×106 and allowed to attach overnight. The following day, cells were pretreated with NAC 4 mM or H2O2 600 μM for 60 minutes prior to peptide incubation.

[5] = within 30 minutes of incubation; cited from earlier work
[6] = treated for 24 hours, washing, reductide for four hours (FIG. 5)
[7] = treated in normal media also containing reductide 1 μM (FIGS. 6a-b)
[8] = pretreatment at varied concentration, washing, incubation with reductide (FIG. 4A, 4B)
[9] = 50 μM for 24 hours, then reductide 1 μM for four hours
[10] = retested at lower concentrations (FIG. 10a-c)

Question: With `C=C(C)C(=O)C(=CC(=O)O)OC` [3E7, penicillic acid] as the molecule, how does the “viability vs. control (not treated with hydrogen peroxide)” value (BJ fibroblasts [1]) read?
Answer: Its value is “significantly higher than control”.

Question: For `CN(C)C(=S)SSC(=S)N(C)C` [9B11, thiram], which “viability signal vs. DMSO” value (H9C2 cells) is on record?
Answer: Its value is “significantly higher than DMSO”.

Question: Which “viability signal vs. DMSO” value (H9C2 cells) does the source give for `CC(=O)O[C@@H]1C[C@@]2(C)[C@H](c3ccoc3)C[C@H]3O[C@]32[C@]2(C)C(=O)C(O)=C3C(C)(C)C(=O)C=C[C@]3(C)[C@@H]12` [20B8, anthothecol] here?
Answer: The value was “significantly higher than DMSO”.

Question: What does the source list for `CCCCS(=N)(=O)CCC(N)C(=O)O` (centres unmarked) [BSO, 1-buthionine sulfoximine]?
Answer: reductide FAM signal (BJ fibroblasts [2]; [6]): significant increase in signal; reductide FAM signal (BJ fibroblasts [2]; [7]): significant decrease in reductide FAM signal

Question: With `O=[N+]([O-])c1ccc(Cl)c([N+](=O)[O-])c1` [CDNB, 1-chloro-2,4-dinitrobenzene] as the molecule, how does the “FAM signal after pretreatment” value (BJ fibroblasts [2]; [8]) read?
Answer: Its value is “decreased in proportion to the concentration”.

Question: Which reductide FAM signal, % of control at 50 µM (BJ fibroblasts [2]) does the source give for `O=c1c2ccccc2[se]n1-c1ccccc1` [Ebselen] here?
Answer: The reductide FAM signal, % of control at 50 µM was 77.2%.

Question: For `CCOc1ccc2c(c1)C(C)=CC(C)(C)N2` [Ethoxyquin], which reductide FAM signal, % of control at 50 µM (BJ fibroblasts [2]) is on record?
Answer: The reductide FAM signal, % of control at 50 µM was 155%.

Question: For `Cc1cc(Cc2cc(C)cc(C(C)(C)C)c2O)c(O)c(C(C)(C)C)c1` [GERI-BP002A], which “FAM signal relative to vehicle treated cells” value (BJ fibroblasts [2]; [9]) is on record?
Answer: The value was “significant decrease in FAM signal”.

Question: What about the “FAM signal relative to vehicle treated cells” value (BJ fibroblasts [2]; [10]) of the same molecule?
Answer: Its value is “increase in FAM signal consistent with reduction”.

Question: For `OO` [H2O2, hydrogen peroxide], which “FAM signal after pretreatment” value (BJ fibroblasts [2]; four hours of incubation with H2O2 (FIG. 4C)) is on record?
Answer: The value was “decreased in proportion to H2O2 concentration”.

Question: And the “FAM signal after pretreatment” value (BJ fibroblasts [2]; twenty-four hours of treatment, 200-400 μM H2O2 (FIG. 4D))?
Answer: Its value is “increased”.

Question: What about the “FAM signal after pretreatment” value (BJ fibroblasts [2]; twenty-four hours of treatment, higher doses than 200-400 μM (FIG. 4D)) of the same molecule?
Answer: The value was “decreased”.

Question: And the “FAM signal following incubation with reductide” value (IMR90 fibroblasts [3]; pretreatment 600 μM for 60 minutes (FIG. 8a))?
Answer: The value was “significant decrease in FAM signal”.

Question: What about the “FAM signal following incubation with reductide” value (IMR90 fibroblasts [3]; pretreatment with low doses for 60 minutes (FIG. 8a)) of the same molecule?
Answer: Its value is “mild increases in FAM signal”.

Question: And the “nonviable cells by side-scatter or DAPI signal” value (IMR90 fibroblasts [4]; reductide 1 μM for 3, 15 or 30 minutes vs. controls, H2O2 600 μM pretreatment for 60 minutes)?
Answer: Its value is “No increase in nonviable cells”.

Question: For `COC1=C(OC)C(=O)C(CCCCCCCCCCO)=C(C)C1=O` [Idebenone], which reductide FAM signal, % of control at 50 µM (BJ fibroblasts [2]) is on record?
Answer: The reductide FAM signal, % of control at 50 µM was 121%.

Question: Which reductide FAM signal, % of control at 50 µM (BJ fibroblasts [2]) does the source give for `CCN1C(=O)C=CC1=O` [N-Ethylmaleimide] here?
Answer: The reductide FAM signal, % of control at 50 µM was -71.7%.

Question: With `CC(=O)N[C@@H](CS)C(=O)O` [NAC, N-acetylcysteine] as the molecule, how does the “FAM signal after pretreatment” value (BJ fibroblasts [2]; [8]) read?
Answer: The value was “increased in proportion to the concentration”.

Question: And the “TAMRA signal (reductide uptake)” value (IMR90 fibroblasts [4]; pretreatment NAC 4 mM for 60 minutes, then reductide 1 μM)?
Answer: The value was “strongest”.

Question: With `CCCCCCCCCCCCCCCC(=O)OC/C=C(C)/C=C/C=C(C)/C=C/C1=C(C)CCCC1(C)C` [Retinyl palmitate] as the molecule, how does the reductide FAM signal, % of control at 50 µM (BJ fibroblasts [2]) read?
Answer: The reductide FAM signal, % of control at 50 µM was 124%.

Question: Which reductide FAM signal, % of control at 50 µM (BJ fibroblasts [2]) does the source give for `CC1=C(C)C(=O)C(C(CCCCCC(=O)O)c2ccccc2)=C(C)C1=O` (centres unmarked) [Seratrodast] here?
Answer: The reductide FAM signal, % of control at 50 µM was 135%.

Question: Which “reductide FAM signal” value (BJ fibroblasts [2]; [6]) does the source give for `OC[C@H]1O[C@H]([S-])[C@H](O)[C@@H](O)[C@@H]1O.[Au+]` [aurothioglucose] here?
Answer: Its value is “small increase in reductide FAM signal that was not statistically significant”.

Question: Which “FAM signal relative to vehicle treated cells” value (BJ fibroblasts [2]; [9]) does the source give for `COc1ccccc1OCCNCC(O)COc1cccc2[nH]c3ccccc3c12` (centres unmarked) [carvedilol] here?
Answer: The value was “significant decrease in FAM signal”.

Question: And the “FAM signal relative to vehicle treated cells” value (BJ fibroblasts [2]; [10])?
Answer: Its value is “increase in FAM signal consistent with reduction”.

Question: Which “reductide FAM signal” value (BJ fibroblasts [2]; [7]) does the source give for `CN(C)C(=O)/N=N/C(=O)N(C)C` [diamide] here?
Answer: Its value is “significant decrease in reductide FAM signal”.

Question: For `C[Se]CC[C@H](N)C(=O)O` [selenomethionine], which “FAM signal relative to vehicle treated cells” value (BJ fibroblasts [2]; all concentrations tested (FIG. 10a-c)) is on record?
Answer: The value was “significant increase in FAM signal consistent with reduction”.

Question: For `CC1=C(/C=C/C(C)=C/C=C/C(C)=C/C=C/C=C(C)/C=C/C=C(C)/C=C/C2=C(C)CCCC2(C)C)C(C)(C)CCC1` [β-carotene], which reductide FAM signal, % of control at 50 µM (BJ fibroblasts [2]) is on record?
Answer: The reductide FAM signal, % of control at 50 µM was 111%.

Question: With KLALKLALKALKAALKLA-NH2 [MAP] as the molecule, how does the internalized fraction [5] read?
Answer: The internalized fraction was 60%.
